Test system: Raw 264.7 cells
Assay: Inhibition of LDH release from Ox-LDL-oxidised Raw 264.7 cells (WST absorbance)
Assay type: cell-based
Details: Ox-LDL 100 μg/mL, compared to the positive control group (LDH release rate 30%)
Experimental: To confirm the anti-oxidative effect of the compounds according to the present invention, the amount of lactate dehydrogenase (LDH), which is a material released from cells killed or damaged by oxidation, was measured by measuring the absorbance using water soluble tetrazolium salt (WST) to measure cytotoxicity. Specifically, Raw 264.7 cells, in which oxidation was induced with 100 μg/mL of oxidized low-density lipoprotein (Ox-LDL), were treated with test materials (2 kinds of comparative groups and 2 kinds of experimental groups) at 1 μM and 10 μM concentrations, respectively, and their ability to inhibit LDH release (i.e., a standard indicator of anti-oxidative effects) was confirmed. As reference, the LDH release rate in the negative control group in which no treatment was made was 7% and the LDH release rate in the positive control group treated with only Ox-LDL was 30%.

Row | Structure (SMILES) | decrease of LDH release rate (1 μM) | decrease of LDH release rate (10 μM)
1 | CC(=O)N[C@@H](CS)C(=O)O [NAC, N-acetyl-L-cysteine] | 6% | 13%
2 | CC(=O)NC(CSCCCSCC(N)C(=O)O)C(=O)O (centres unmarked) [Newcompound-1, 2-acetamido-3-(3-(2-amino-2-carboxyethylthio)propylthio)propanoic acid] | 12% | 21%
3 | CC(=O)NC(CSCCCSCC(NC(C)=O)C(=O)O)C(=O)O (centres unmarked) [Newcompound-2, 2,14-dioxo-6,10-dithia-3,13-diazapentadecan-4,12-dicarboxylic acid] | 11% | 20%
4 | C=CCSC[C@H](N)C(=O)O [SAC, S-allyl-L-cysteine] | 7% | 16%

From patent US10730829B2, “Compound exhibiting anti-oxidative or anti-inflammatory activity” (University-Industry Cooperation Group of Kyung Hee …, priority 2016, dated 2020)
